Reference: PubChem BioAssay AID248 (DTP/NCI, 2004)
Toxic doses and inconclusive results are not listed. Cut-off read from the data, not from the text of the source: active = T/C of 150% or more; inactive = T/C below 125%.

System: L1210 leukemia ip in BDF1 mice, survival T/C
Experiment: NCI In Vivo Anticancer Drug Screen. Data for tumor model L1210 Leukemia (intraperitoneal) in B6D2F1 (BDF1) mice
Conditions: endpoint: mean survival time, higher = longer survival
How it was run: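 Survival endpoint. Drug-treated group vs vehicle group, expressed as T divided by C. Tumor passaged by transplantation.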

[1] = dose: 100.0 mg/kg/injection, schedule: Q04DX003 (ip), vehicle: saline with Tween-80
[2] = dose: 200.0 mg/kg/injection, schedule: Q04DX003 (ip), vehicle: saline with Tween-80
[3] = dose: 400.0 mg/kg/injection, schedule: Q04DX003 (ip), vehicle: saline with Tween-80
[4] = dose: 100.0 mg/kg/injection, schedule: Q04DX002 (ip), vehicle: saline
[5] = dose: 200.0 mg/kg/injection, schedule: Q04DX002 (ip), vehicle: saline
[6] = dose: 100.0 mg/kg/injection, schedule: Q04DX003 (ip), vehicle: saline
[7] = dose: 200.0 mg/kg/injection, schedule: Q04DX003 (ip), vehicle: saline
[8] = dose: 12.5 mg/kg/injection, schedule: Q04DX003 (ip), vehicle: saline
[9] = dose: 25.0 mg/kg/injection, schedule: Q01DX001 (ip), vehicle: saline
[10] = dose: 25.0 mg/kg/injection, schedule: Q01DX009 (ip), vehicle: saline
[11] = dose: 25.0 mg/kg/injection, schedule: Q04DX003 (ip), vehicle: saline
[12] = dose: 50.0 mg/kg/injection, schedule: Q01DX001 (ip), vehicle: saline
[13] = dose: 50.0 mg/kg/injection, schedule: Q04DX003 (ip), vehicle: saline
[14] = dose: 25.0 mg/kg/injection, schedule: Q04DX002 (ip), vehicle: Klucel (hydroxypropylcellulose) (HPC)
[15] = dose: 50.0 mg/kg/injection, schedule: Q04DX002 (ip), vehicle: Klucel (hydroxypropylcellulose) (HPC)
[16] = dose: 100.0 mg/kg/injection, schedule: Q04DX002 (ip), vehicle: Klucel (hydroxypropylcellulose) (HPC)
[17] = dose: 50.0 mg/kg/injection, schedule: Q01DX009 (ip), vehicle: saline with Tween-80
[18] = dose: 100.0 mg/kg/injection, schedule: Q01DX009 (ip), vehicle: saline with Tween-80
[19] = dose: 200.0 mg/kg/injection, schedule: Q01DX009 (ip), vehicle: saline with Tween-80
[20] = dose: 50.0 mg/kg/injection, schedule: Q01DX009 (ip), vehicle: saline
[21] = dose: 100.0 mg/kg/injection, schedule: Q04DX003 (ip), vehicle: Klucel (hydroxypropylcellulose) (HPC)
[22] = dose: 200.0 mg/kg/injection, schedule: Q04DX003 (ip), vehicle: Klucel (hydroxypropylcellulose) (HPC)
[23] = dose: 400.0 mg/kg/injection, schedule: Q04DX003 (ip), vehicle: Klucel (hydroxypropylcellulose) (HPC)
[24] = dose: 100.0 mg/kg/injection, schedule: Q01DX001 (ip), vehicle: saline
[25] = dose: 200.0 mg/kg/injection, schedule: Q01DX001 (ip), vehicle: saline

Measured: T/C

OCCN1C(c2ccccc2)C1c1ccccc1 (stereo not given)
inactive: [1] 102 % of control | [2] 93 % of control | [3] 97 % of control

O=[N+]([O-])c1ccc2[nH]c(=S)sc2c1
inactive: dose: 25.0 mg/kg/injection, schedule: Q01DX009 (ip), vehicle: Klucel (hydroxypropylcellulose) (HPC) 95 % of control | dose: 50.0 mg/kg/injection, schedule: Q01DX009 (ip), vehicle: Klucel (hydroxypropylcellulose) (HPC) 95 % of control

Cc1c(C(=O)O)no[n+]1[O-]
inactive: [4] 104 % of control | [5] 95 % of control | dose: 400.0 mg/kg/injection, schedule: Q04DX002 (ip), vehicle: saline 87 % of control

C(=N\c1ncn[nH]1)/Nc1ncn[nH]1
inactive: [6] 94 % of control | [7] 96 % of control

CC(=O)OCC1OC(n2cc(C)c(=O)[nH]c2=O)CC1OC(C)=O (stereo not given)
inactive: dose: 684.0 mg/kg/injection, schedule: Q02DX010 (ip), vehicle: other 99 % of control | dose: 1368.0 mg/kg/injection, schedule: Q02DX010 (ip), vehicle: other 105 % of control | dose: 2052.0 mg/kg/injection, schedule: Q02DX010 (ip), vehicle: other 96 % of control

Nc1ccccc1Sc1ccc2c3c(cccc13)C(=O)N(c1ccccc1)C2=O
inactive: dose: 100.0 mg/kg/injection, schedule: Q04DX002 (ip), vehicle: saline with Tween-80 87 % of control | dose: 400.0 mg/kg/injection, schedule: Q04DX002 (ip), vehicle: saline with Tween-80 94 % of control

[N-]=[N+]=NS(=O)(=O)CCc1ccccc1
inactive: [1] 96 % of control | [2] 110 % of control | [3] 98 % of control

CNN=C(C)C
inactive: dose: 12.5 mg/kg/injection, schedule: Q01DX001 (ip), vehicle: saline 94 % of control | dose: 12.5 mg/kg/injection, schedule: Q01DX009 (ip), vehicle: saline 105 % of control | [8] 96 % of control | [9] 94 % of control | [10] 100 % of control | [11] 98 % of control | [12] 97 % of control | [13] 98 % of control

N=C(N)SCc1ccc(Cl)cc1N
inactive: [14] 97 % of control | [15] 102 % of control | [16] 103 % of control

CCOCC1c2ccccc2CCN1Cc1c[nH]c2ccccc12 (stereo not given)
inactive: dose: 50.0 mg/kg/injection, schedule: Q01DX001 (ip), vehicle: carboxymethylcellulose (CMC) 97 % of control | dose: 100.0 mg/kg/injection, schedule: Q01DX001 (ip), vehicle: carboxymethylcellulose (CMC) 89 % of control | dose: 200.0 mg/kg/injection, schedule: Q01DX001 (ip), vehicle: carboxymethylcellulose (CMC) 90 % of control

CC(C)(CO)CCl
inactive: [17] 91 % of control | [18] 95 % of control | [19] 88 % of control

CC(=O)/C(N=O)=C(/C)O
inactive: [20] 111 % of control | dose: 100.0 mg/kg/injection, schedule: Q01DX009 (ip), vehicle: saline 105 % of control | [21] 91 % of control | dose: 200.0 mg/kg/injection, schedule: Q01DX009 (ip), vehicle: saline 104 % of control | [22] 93 % of control | dose: 400.0 mg/kg/injection, schedule: Q01DX001 (ip), vehicle: saline with Tween-80 92 % of control | dose: 400.0 mg/kg/injection, schedule: Q01DX009 (ip), vehicle: saline 111 % of control | [23] 87 % of control

COC(=O)c1ccc(NCC(C)(C)N)cc1
inactive: dose: 12.0 mg/kg/injection, schedule: Q01DX001 (ip), vehicle: saline 94 % of control | dose: 12.0 mg/kg/injection, schedule: Q01DX009 (ip), vehicle: saline 98 % of control | dose: 12.0 mg/kg/injection, schedule: Q04DX003 (ip), vehicle: saline 97 % of control | [9] 96 % of control | [10] 105 % of control | [11] 104 % of control | [12] 101 % of control | [20] 93 % of control | [13] 97 % of control

CCCOC(=O)Nc1cccc2ccccc12
inactive: dose: 12.5 mg/kg/injection, schedule: Q04DX002 (ip), vehicle: Klucel (hydroxypropylcellulose) (HPC) 101 % of control | [14] 86 % of control | [15] 96 % of control | [16] 101 % of control

NC(=O)CSc1cc(Cl)c(Cl)cc1Cl
inactive: dose: 50.0 mg/kg/injection, schedule: Q04DX003 (ip), vehicle: saline with Tween-80 103 % of control | [1] 106 % of control | [2] 90 % of control

Cc1cc(C)c2c(c1)NP(=S)(c1ccccc1)N2 (stereo not given)
inactive: dose: 75.0 mg/kg/injection, schedule: Q04DX002 (ip), vehicle: gum acacia 93 % of control | dose: 150.0 mg/kg/injection, schedule: Q04DX002 (ip), vehicle: gum acacia 93 % of control | dose: 300.0 mg/kg/injection, schedule: Q04DX002 (ip), vehicle: gum acacia 93 % of control

CCOC(=O)N(OC(C)=O)P(=O)(N1CC1(C)C)N1CC1(C)C (stereo not given)
inactive: [4] 100 % of control | [5] 123 % of control

Cc1ccc(C(=O)C=C(C(F)(F)F)C(F)(F)F)cc1
inactive: dose: 6.25 mg/kg/injection, schedule: Q04DX003 (ip), vehicle: saline 94 % of control | [8] 96 % of control | [11] 103 % of control

CCCCCC[Si](Cl)(CCCCCC)CCCCCC
inactive: [24] 87 % of control | [25] 98 % of control

CCC1CC2CC(c3cc4c(cc3OC)N(C)C3C(O)(C(=O)OC)C(OC(C)=O)C5(CC)C=CCN6CCC43C65)c3[nH]c4ccccc4c3CCN(C1)C2 (stereo not given)
inactive: dose: 0.25 mg/kg/injection, schedule: Q01DX009 (ip), vehicle: Klucel (hydroxypropylcellulose) (HPC) 100 % of control | dose: 0.5 mg/kg/injection, schedule: Q01DX009 (ip), vehicle: Klucel (hydroxypropylcellulose) (HPC) 105 % of control | dose: 1.0 mg/kg/injection, schedule: Q01DX009 (ip), vehicle: Klucel (hydroxypropylcellulose) (HPC) 101 % of control | dose: 2.0 mg/kg/injection, schedule: Q01DX009 (ip), vehicle: Klucel (hydroxypropylcellulose) (HPC) 97 % of control | dose: 4.0 mg/kg/injection, schedule: Q01DX009 (ip), vehicle: Klucel (hydroxypropylcellulose) (HPC) 110 % of control | dose: 8.0 mg/kg/injection, schedule: Q01DX009 (ip), vehicle: Klucel (hydroxypropylcellulose) (HPC) 103 % of control

CCCCNC(=O)Nc1ccc(C(=O)OCC)cc1
inactive: dose: 100.0 mg/kg/injection, schedule: Q01DX009 (ip), vehicle: Klucel (hydroxypropylcellulose) (HPC) 98 % of control | [21] 95 % of control | dose: 200.0 mg/kg/injection, schedule: Q01DX009 (ip), vehicle: Klucel (hydroxypropylcellulose) (HPC) 98 % of control | [22] 96 % of control | dose: 400.0 mg/kg/injection, schedule: Q01DX009 (ip), vehicle: Klucel (hydroxypropylcellulose) (HPC) 88 % of control | [23] 94 % of control

CC(C)(C)c1cccc(OS(=O)(=O)c2cccc([N+](=O)[O-])c2)c1
inactive: [1] 95 % of control | [2] 100 % of control | [3] 100 % of control

COC(=O)c1cccc2c1-c1ccccc1C(Br)C2Br (stereo not given)
inactive: [24] 111 % of control | [6] 96 % of control | [25] 95 % of control | [7] 92 % of control | dose: 400.0 mg/kg/injection, schedule: Q01DX001 (ip), vehicle: saline 97 % of control | dose: 400.0 mg/kg/injection, schedule: Q04DX003 (ip), vehicle: saline 94 % of control

Nc1nc(N)c2c(n1)Nc1ccc(Cl)nc1S2
inactive: dose: 75.0 mg/kg/injection, schedule: Q01DX009 (ip), vehicle: Klucel (hydroxypropylcellulose) (HPC) 93 % of control | dose: 150.0 mg/kg/injection, schedule: Q01DX009 (ip), vehicle: Klucel (hydroxypropylcellulose) (HPC) 95 % of control

C=CCC(C(=O)OC)C(=O)C(C)(C)C (stereo not given)
inactive: [17] 100 % of control | [18] 92 % of control | [19] 100 % of control
